Measured values: patent US4046762A, “Esters and amides of 3-aryl-1,4 benzodioxan-2-carboxylic acids” (Instituto Luso Farmaco D'Italia S.r.l., priority 1972, dated 1977)
Structures can show the parent of a compound that is named as a salt.

Key:
[1] = tested on: Stretching from acetic acid; assay: Stretching from acetic acid; assay type: in vivo; details: for ED50: read-out: Stretching from acetic acid, DE50
Oedema from charragenin = assay: Oedema from charragenin, rat; assay type: in vivo; details: i.p.
tail of mouse = assay: Local anaesthetic activity, tail of mouse; assay type: in vivo
[2] = Indicative acute toxicity, mouse (intraperitoneally); details: in vivo, ip, read-out: Indicative acute toxicity, DL50
sciatic nerve of rat = assay: Local anaesthetic activity, sciatic nerve of rat
ileum of Guinea pig = assay: Antihystaminic activity, ileum of Guinea pig; details: Cavia porcellus, 10 γ/ml
Antituxive activity = assay: Antituxive activity; assay type: in vivo; details: for ED50: read-out: Antituxive activity, DE50
central nervous system [3] = assay: Activity on central nervous system, mouse: Stereotipy (apomorphine); assay type: in vivo; details: orally, 40 mg/kg
central nervous system [4] = assay: Activity on central nervous system, mouse: Stereotipy (amphetamine); assay type: in vivo; details: orally, 180 mg/kg
Arrhytmia CaCl2 = Arrhytmia CaCl2 - rat; assay type: in vivo; details: intravenously, 7.5 mg/kg
central nervous system [5] = assay: Activity on central nervous system, mouse: depression of spontaneous motility; assay type: in vivo; details: orally
Antipyresis = assay: Antipyresis, rat; assay type: in vivo; details: 65 mg/kg
central nervous system [6] = assay: Activity on central nervous system, mouse: Catalepsy (haloperidol); assay type: in vivo; details: orally, 15 mg/kg
central nervous system [7] = assay: Activity on central nervous system, mouse: Potentiation of barbituric hypnosis; assay type: in vivo; details: orally, 15 mg/kg

Compound: O=C(OCCOCCN1CCOCC1)C1Oc2ccccc2OC1c1ccccc1 (stereo not drawn) [LR 348, morpholinoethoxyethyl (3-phenyl-1,4-benzodioxan-2-yl)-carboxylate,hydrochloride]
- ED50 [1]: 15.6 mg/kg
- Oedema from charragenin, % (Oedema from charragenin; 50 mg/kg): 40%
- Local anaesthetic activity, tail of mouse, DE50 (tail of mouse): 2.70 mg/mL
- LD50 [2]: 250 mg/kg
- Local anaesthetic activity, sciatic nerve of rat, DE50 (sciatic nerve of rat): 12.2 mg/mL
- inhibition at 10 µg/mL (ileum of Guinea pig): 60%
- ED50 (Antituxive activity): 50 mg/kg

Compound: CCN(CC)CCOCCOC(=O)C1Oc2ccccc2OC1c1ccccc1 (stereo not drawn) [LR 349, n,n-diethylaminoethoxyethyl (3-phenyl-1,4-benzodioxan-2-yl)-carboxylate, citrate]
- Stretching from acetic acid, % ([1]; 10 mg/kg): 20%
- Oedema from charragenin, % (Oedema from charragenin; 50 mg/kg): 50%
- Local anaesthetic activity, tail of mouse, DE50 (tail of mouse): 2.85 mg/mL
- LD50 [2]: 200 mg/kg
- Local anaesthetic activity, sciatic nerve of rat, DE50 (sciatic nerve of rat): 11.2 mg/mL
- ED50 (Antituxive activity): 39.5 mg/kg

Compound: O=C(NO)C1Oc2ccccc2OC1c1ccccc1 (stereo not drawn) [LR 518, (3-phenyl-1,4-benzodioxan-2-yl)-carbohydroxamic acid]
- Stereotipy (apomorphine), % (central nervous system [3]): 30%
- Oedema from charragenin, % (Oedema from charragenin; 40 mg/kg): 12%
- LD50 [2]: 175 mg/kg

Compound: O=C(C1Oc2ccccc2OC1c1ccccc1)N1CCOCC1 (stereo not drawn) [LR 519, n-(3-phenyl-1,4-benzodioxan-2-ylcarbonyl)-morpholine]
- Oedema from charragenin, % (Oedema from charragenin; 180 mg/kg): 15%
- LD50 [2]: 750 mg/kg
- Stereotipy (amphetamine), % (central nervous system [4]): 20%

Compound: CCN(CC)CCOC(=O)C1Oc2ccccc2OC1c1ccccc1 (stereo not drawn) [LR 520, n,n-diethylaminoethyl (3-phenyl-1,4-benzodioxan-2-yl)-carboxylate,citrate]
- Oedema from charragenin, % (Oedema from charragenin; 60 mg/kg): 9%
- LD50 [2]: 300 mg/kg
- Arrhytmia CaCl2 (Arrhytmia CaCl2): 40

Compound: O=C(C1Oc2ccccc2OC1c1ccccc1)N1CCN(c2ccccc2)CC1 (stereo not drawn) [LR 394, n'-phenyl-N-(3-phenyl-1,4-benzodioxan-2-ylcarbonyl)-piperazine.H2 0]
- ED50 [1]: 22 mg/kg
- Oedema from charragenin, % (Oedema from charragenin; 42 mg/kg): 50%
- LD50 [2]: 330 mg/kg
- ED50 (central nervous system [5]; po, read-out: depression of spontaneous motility, DE50): 33.5 mg/kg
- Antipyresis, % (Antipyresis): 100%
- Antituxive activity, % (Antituxive activity; 10 mg/kg): 64%

Compound: CCN(CC)CCNC(=O)C1Oc2ccccc2OC1c1ccccc1 (stereo not drawn) [LR 510, n-(n',n'-diethylaminoethyl)-(3-phenyl-1,4-benzodioxan-2-ylcarbonyl)-amine]
- LD50 [2]: 75 mg/kg
- Catalepsy (haloperidol), % (central nervous system [6]): 33%
- Potentiation of barbituric hypnosis, % (central nervous system [7]): 20%

Compound: CC(C)NC(=O)C1Oc2ccccc2OC1c1ccccc1 (stereo not drawn) [LR 367, n-(3-phenyl-1,4-benzodioxan-2-ylcarbonyl)-isopropylamine]
- ED50 [1]: 138 mg/kg
- Oedema from charragenin, % (Oedema from charragenin; 200 mg/kg): 30%
- LD50 [2]: > 3000 mg/kg
- depression of spontaneous motility, % (central nervous system [5]; 150 mg/kg): 32%
- ED50 (Antituxive activity): 86 mg/kg
